Tests used:
O-2A/OPCs = experiment: In vitro BrdU incorporation assay; type: cell-based, rat; conditions: together with MeHg
Outline: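 Surface antigens stained on live or 2% paraformaldehyde-fixed cells; intracellular ones after ice-cold methanol (4 min) or 0.5% Triton (15 min). Fluorescent secondary antibodies applied for 20 min.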

Rho kinase = Rho kinase (Rattus norvegicus, UniProt Q63644); conditions: concentration of Y27632 used in O-2A/OPCs
Method: Rho kinase activity was quantified using the CycLex Rho-Kinase Assay kit (MBL international, Woburn, Mass., United States) as described. Cells were lysed and about 500 μg of total cell Jysates were immunoprecipitated with anti-ROCK1 antibody (Sigma), and the precipitates were re-suspended with kinase reaction buffer provided in the kit. Rho kinase activities of each sample were assayed using the kit according to the manufacturer's instructions.

Chain of Rho kinase (Q63644 whole entry): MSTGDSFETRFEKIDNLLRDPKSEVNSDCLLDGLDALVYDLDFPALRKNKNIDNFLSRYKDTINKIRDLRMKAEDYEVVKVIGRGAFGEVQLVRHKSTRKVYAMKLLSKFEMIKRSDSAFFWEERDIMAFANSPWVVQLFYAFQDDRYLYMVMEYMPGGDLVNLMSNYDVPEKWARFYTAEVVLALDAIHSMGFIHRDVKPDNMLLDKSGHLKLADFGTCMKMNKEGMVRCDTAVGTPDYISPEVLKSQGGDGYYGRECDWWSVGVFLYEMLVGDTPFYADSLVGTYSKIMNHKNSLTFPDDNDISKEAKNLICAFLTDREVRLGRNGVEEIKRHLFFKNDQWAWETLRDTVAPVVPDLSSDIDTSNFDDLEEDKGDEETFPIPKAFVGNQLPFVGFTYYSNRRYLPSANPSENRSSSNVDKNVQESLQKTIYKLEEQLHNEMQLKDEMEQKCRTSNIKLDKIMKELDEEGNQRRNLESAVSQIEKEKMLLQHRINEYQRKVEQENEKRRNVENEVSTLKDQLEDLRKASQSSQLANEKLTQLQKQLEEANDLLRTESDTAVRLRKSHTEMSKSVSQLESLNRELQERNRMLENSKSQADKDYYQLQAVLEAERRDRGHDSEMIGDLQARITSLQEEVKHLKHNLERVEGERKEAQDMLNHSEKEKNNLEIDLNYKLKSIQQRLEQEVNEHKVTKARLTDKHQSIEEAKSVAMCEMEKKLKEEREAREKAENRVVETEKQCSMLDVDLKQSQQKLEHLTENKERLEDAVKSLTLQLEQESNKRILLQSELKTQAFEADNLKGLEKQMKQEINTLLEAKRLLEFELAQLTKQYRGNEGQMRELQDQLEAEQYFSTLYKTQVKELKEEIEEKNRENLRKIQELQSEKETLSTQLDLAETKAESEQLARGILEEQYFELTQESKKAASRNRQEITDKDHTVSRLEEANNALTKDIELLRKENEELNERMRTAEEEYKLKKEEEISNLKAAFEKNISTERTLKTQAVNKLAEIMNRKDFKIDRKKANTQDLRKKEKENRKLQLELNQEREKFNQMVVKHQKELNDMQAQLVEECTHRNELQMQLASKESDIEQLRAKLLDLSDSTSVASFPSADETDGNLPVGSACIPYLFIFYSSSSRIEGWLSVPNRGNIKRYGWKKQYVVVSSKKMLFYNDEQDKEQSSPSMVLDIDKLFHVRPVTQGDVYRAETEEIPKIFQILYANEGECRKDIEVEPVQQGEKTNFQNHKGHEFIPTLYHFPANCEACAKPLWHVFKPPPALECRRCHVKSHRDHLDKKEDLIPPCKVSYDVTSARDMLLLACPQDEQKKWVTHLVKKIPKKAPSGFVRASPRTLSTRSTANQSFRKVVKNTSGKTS

C[C@@H](N)[C@H]1CC[C@H](C(=O)Nc2ccncc2)CC1 [Y27632]
effect on MeHg-associated suppression of BrdU incorporation / cell division (O-2A/OPCs): did not alter | Rho kinase activity (Rho kinase): successfully inhibited

Reference: patent publication US20080171710A1, “The Redox/Fyn/c-Cbl Pathway” (priority 2007, published 2008)
